Measurements as given in article PMC5345022 (Scientific Reports, 2017).
Entries after “also recorded” stand apart in the source; their conditions may differ.

What was measured:
[1] = target: T1, dopamine receptor subtype D2S (Homo sapiens, UniProt P14416); assay: β-Arrestin-2 recruitment assay (PathHunter), agonist and antagonist mode; assay type: cell-based; parameters: expressed in transfected cells; conditions: for Emax: D2S-mediated recruitment of β-arrestin-2, PathHunter assay, relative to the maximum effect of quinpirole; for β-arrestin recruitment (in words): agonist mode
T1 sequence (P14416 1-414 isoform P14416-2): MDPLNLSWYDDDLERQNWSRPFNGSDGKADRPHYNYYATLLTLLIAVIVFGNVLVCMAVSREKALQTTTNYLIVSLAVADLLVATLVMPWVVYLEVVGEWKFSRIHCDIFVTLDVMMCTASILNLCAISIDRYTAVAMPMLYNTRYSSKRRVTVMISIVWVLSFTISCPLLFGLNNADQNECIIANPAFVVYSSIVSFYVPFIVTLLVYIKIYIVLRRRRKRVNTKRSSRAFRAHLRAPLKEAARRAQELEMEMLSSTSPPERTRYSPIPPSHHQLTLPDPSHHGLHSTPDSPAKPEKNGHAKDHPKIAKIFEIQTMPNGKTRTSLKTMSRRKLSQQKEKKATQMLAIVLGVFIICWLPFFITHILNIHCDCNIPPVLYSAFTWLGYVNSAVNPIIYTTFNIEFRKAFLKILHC
Experimental: The measurement of β-arrestin-2 recruitment stimulated by D2R activation was performed using the PathHunter® assay purchased from DiscoveRx (Birmingham, U.K.) according to the manufacturer’s protocol as described previously.
The amount of recruitment of β-arrestin was derived from the agonist-induced increase of chemiluminescence, which was expressed in counts per second (cps). Dose-response curves were normalised to basal cps stimulated by buffer (=0%) and the effect of the maximum effect of the reference compound quinpirole (=100%).
(§1) From each curve, a set of mean values was derived and pooled to result in an average curve showing the EC50 and Emax value, respectively.

[2] = target: T1, dopamine receptor subtype D2S; assay: cAMP inhibition assay: inhibition of forskolin-stimulated cAMP accumulation (CAMYEL BRET sensor); assay type: cell-based; parameters: expressed in transfected cells; host or cells: HEK293T cells, transient co-transfection with the CAMYEL sensor; conditions: for Inhibition of forskolin-stimulated cAMP accumulation Emax (%) / Emax: maximum effect relative to the effect of quinpirole
Experimental: HEK293T cells were transiently co-transfected with pcDNA3L-His-CAMYEL[45] (purchased from ATCC, Manassas, VA via LGC Standards, Wesel, Germany) and D2s receptor, respectively, and the assay was performed according to literature. Twenty-four hours after transfection cells were split into white half-area 96-well plates at 2 × 10^5 cells/well and grown overnight in a phenol-red free medium supplemented with serum (Invitrogen, Darmstadt, Germany). On the day of measurement, the medium was removed and replaced by phosphate buffered saline (PBS). The cells were serum-starved for 1 h before treatment. The assay was started by adding 10 μL of coelenterazine-h (Promega, Mannheim, Germany) to each well to yield a final concentration of 5 μM. After 5 min of incubation, test compounds were added in PBS containing forskolin at a final concentration of 10 μM. After an incubation time of 15 min, BRET measurement was performed with a CLARIOstar plate reader (BMG LabTech, Ortenberg, Germany). […] Curves were normalised to basal BRET ratio obtained from dPBS (0%) and the maximum effect of the reference ligand quinpirole (100%).
Data from cAMP measurements were analysed by normalising the BRET ratios with 0% for the unstimulated receptor and 100% for the full effect of the reference ligand quinpirole. Dose-response curves were calculated by nonlinear regression using the algorithms of PRISM 6.0.
as §1

[3] = target: T2, human dopamine D2L receptor (Homo sapiens, UniProt P14416); assay: Radioligand binding assay with [3H]spiperone, membranes of CHO cells stably expressing the receptor; conditions: for binding affinity (in words): D2R radioligand binding
T2 sequence (P14416 whole entry): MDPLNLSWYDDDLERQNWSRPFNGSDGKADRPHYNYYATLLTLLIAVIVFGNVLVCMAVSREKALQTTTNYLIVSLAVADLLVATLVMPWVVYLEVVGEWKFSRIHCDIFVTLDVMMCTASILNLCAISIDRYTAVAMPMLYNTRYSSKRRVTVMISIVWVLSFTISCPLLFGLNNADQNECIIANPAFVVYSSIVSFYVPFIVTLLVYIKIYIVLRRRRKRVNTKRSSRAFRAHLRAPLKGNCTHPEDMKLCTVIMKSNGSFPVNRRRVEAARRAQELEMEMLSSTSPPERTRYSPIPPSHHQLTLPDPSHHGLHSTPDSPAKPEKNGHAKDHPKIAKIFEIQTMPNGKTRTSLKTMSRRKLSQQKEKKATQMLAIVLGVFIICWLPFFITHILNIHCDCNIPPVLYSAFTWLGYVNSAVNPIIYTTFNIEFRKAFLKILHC
Experimental: (§2) Receptor binding studies were carried out as described previously[43][44].
(§3) The resulting competition curves of the receptor binding experiments were analysed by nonlinear regression using the algorithms in PRISM 6.0 (GraphPad Software, San Diego, CA). […] IC50 values were transformed to Ki values according to the equation of Cheng and Prusoff[48].

[4] = target: T2, human dopamine D2L receptor; assay: biochemical
Experimental: as §2, §3

**Q.** What does the source list for CC1NCCc2cc(O)c(O)cc21 (stereo not shown) [Salsolinol]?
**A.** Emax [1]: < 7%; β-arrestin recruitment (in words) [1]: did not show β-arrestin recruitment; agonist activity in the cAMP accumulation assay / Gi/o activation (in words) ([2]; D2S expressed in HEK cells): weak partial agonists; also recorded: partial agonism in Gi/o activation; Inhibition of forskolin-stimulated cAMP accumulation Emax (%) ([2]; D2S expressed in HEK cells): 21%; Inhibition of forskolin-stimulated cAMP accumulation Emax (%) ([2]; D2S expressed in HEK cells, listed as salsolinol): below 50%

**Q.** Which Ki [3] does the source give for CN(C)CCc1ccc(O)cc1 [Hordenine] here?
**A.** Its Ki is 13 µM.

**Q.** What about the “binding affinity (in words)” value [3] of the same compound?
**A.** Its value is “low micromolar range”.

**Q.** What about the Emax [1] of the same compound?
**A.** The Emax was less than 7%.

**Q.** What about the “β-arrestin recruitment (in words)” value [1] of the same compound?
**A.** The value was “did not show significant β-arrestin recruitment; also recorded: no β-arrestin-2 recruitment was determined”.

**Q.** What about the “antagonism of quinpirole-stimulated β-arrestin-2 recruitment (in words)” value ([1]; antagonist mode: 30 min pre-incubation, then 300 nM quinpirole) of the same compound?
**A.** The value was “antagonised D2-mediated β-arrestin recruitment; also recorded: antagonistic activity; also recorded: completely antagonised quinpirole-stimulated recruitment; also recorded: antagonism in β-arrestin recruitment”.

**Q.** And the EC50 [2]?
**A.** The EC50 was 3.7 µM.

**Q.** What about the “agonist activity in the cAMP accumulation assay / Gi/o activation (in words)” value ([2]; D2S expressed in HEK cells) of the same compound?
**A.** Its value is “shows agonist properties; also recorded: almost full D2R-agonist in Gi/o activation”.

**Q.** What about the Emax ([2]; HEK293, read-out: Inhibition of forskolin-stimulated cAMP accumulation Emax (%), D2S expressed in HEK cells) of the same compound?
**A.** Its Emax is 76%.

**Q.** Which Ki [4] does the source give for C=CC(C)(C)[C@@]12C[C@H]3C(=O)N/C(=C/c4c[nH]cn4)C(=O)N3[C@@H]1Nc1ccccc12 [Roquefortine C] here?
**A.** The Ki was greater than 100 µM.

**Q.** Which Ki [3] does the source give for O=C(CC1NCCCC1O)Cn1cnc2cc(Br)c(Cl)cc2c1=O (stereo not shown) [Halofuginone, reference compound] here?
**A.** The Ki was greater than 50 µM.

**Q.** How did the Ki [3] turn out when NCc1cc(=O)[nH]o1 [Muscimol] was run?
**A.** The Ki was greater than 100 µM.

**Q.** How did the Ki [4] turn out when COC(=O)C1=CO[C@@H](C)[C@H]2CN3CCc4c([nH]c5ccccc45)[C@@H]3C[C@H]12 [Ajmalicine] was run?
**A.** The Ki was greater than 100 µM.

**Q.** With COc1cc(C(=O)OCCCCNC(=N)N)cc(OC)c1O [Leonurine] as the compound, how does the Ki [4] read?
**A.** Its Ki is greater than 100 µM.

**Q.** How did the Ki [4] turn out when COc1ccc2c(c1OC)CN1CCc3cc4c(cc3C1=C2)OCO4 [Dihydroberberine] was run?
**A.** Its Ki is 75 µM.

**Q.** Which results are given for Oc1cc(O)c2cc(O)c(-c3cc(O)c(O)c(O)c3)[o+]c2c1 [Delphinidin]?
**A.** Ki [4]: 26 µM; Emax [1]: < 7%

**Q.** With N[C@@H](CCCCn1c(C=O)ccc1CO)C(=O)O [Pyrraline] as the compound, how does the Ki [4] read?
**A.** Its Ki is greater than 100 µM.

**Q.** Which Ki [3] does the source give for CC(C)(C)NCC(O)c1cc(Cl)c(N)c(Cl)c1 (stereo not shown) [Clenbuterol, reference compound] here?
**A.** Its Ki is 50 µM.

**Q.** For N=C(N/N=C/c1ccc(Cl)cc1)N/N=C/c1ccc(Cl)cc1 [Robenidine, reference compound], which Ki [4] is on record?
**A.** The Ki was 5.4 µM.

**Q.** And the “binding affinity (in words)” value [3]?
**A.** Its value is “low micromolar range”.

**Q.** What about the Emax [1] of the same compound?
**A.** Its Emax is less than 7%.

**Q.** What about the “β-arrestin recruitment (in words)” value [1] of the same compound?
**A.** Its value is “could not observe any activation; also recorded: did not show any activation”.

**Q.** What about the “agonist activity in the cAMP accumulation assay / Gi/o activation (in words)” value ([2]; D2S expressed in HEK cells) of the same compound?
**A.** Its value is “could not observe any activation; also recorded: did not show any activation”.

**Q.** What about the Emax ([2]; HEK293, D2S expressed in HEK cells, read-out: Inhibition of forskolin-stimulated cAMP accumulation Emax (%)) of the same compound?
**A.** Its Emax is less than 5%.

**Q.** How did the Ki [4] turn out when O=C(O)c1cn(-c2ccc(F)cc2)c2cc(N3CCNCC3)c(F)cc2c1=O [Sarafloxacin, reference compound] was run?
**A.** Its Ki is greater than 100 µM.

**Q.** Which Ki [3] does the source give for CC(Cc1ccc(C(C)(C)C)cc1)CN1C[C@@H](C)O[C@@H](C)C1 (stereo partly shown) [Fenpropimorph] here?
**A.** Its Ki is greater than 100 µM.

**Q.** For O=C(CCc1ccc(O)c(O)c1)NCCCNCCCCNCCCNC(=O)CCc1ccc(O)c(O)c1 [Kukoamine A], which Ki [4] is on record?
**A.** The Ki was greater than 100 µM.

**Q.** Which Ki [3] does the source give for CC[C@H]1CN2CCc3cc(OC)c(OC)cc3[C@@H]2C[C@@H]1C[C@H]1NCCc2cc(OC)c(OC)cc21 [Emetine, reference compound] here?
**A.** Its Ki is 37 µM.

**Q.** With CC(=O)OC1C(C)CN(C)C2Cc3c[nH]c4cccc(c34)C12 (stereo not shown) [Fumigaclavine A] as the compound, how does the Ki [3] read?
**A.** The Ki was 1.1 µM.

**Q.** And the “Ki value relative to the endogenous ligand dopamine” value ([3]; D2L radioligand binding)?
**A.** Its value is “seven times higher”.

**Q.** And the Emax [1]?
**A.** The Emax was less than 7%.

**Q.** And the “β-arrestin recruitment (in words)” value [1]?
**A.** The value was “did not show β-arrestin recruitment”.

**Q.** What about the EC50 [2] of the same compound?
**A.** The EC50 was 0.25 µM.

**Q.** What about the “agonist activity in the cAMP accumulation assay / Gi/o activation (in words)” value ([2]; D2S expressed in HEK cells) of the same compound?
**A.** Its value is “weak partial agonists”.

**Q.** What about the “agonist activity in the cAMP accumulation assay / Gi/o activation (in words)” value ([2]; D2S expressed in HEK cells, listed as fumigaclavine A) of the same compound?
**A.** Its value is “partial agonism in Gi/o activation”.
